Measurements taken from BindingDB's records for doi:10.1021/jm300185p (Takeda Pharmaceutical, 2012).

Target: Mitogen-activated protein kinase kinase kinase 7 (TAK1 kinase) (Homo sapiens) (UniProt O43318)
Assay: Inhibition of N-terminus FLAG-tagged TAK1 expressed in baculovirus expression system using [gamma-33P]-ATP measured after 60 mins by scintillation counting

Mitogen-activated protein kinase kinase kinase 7 (TAK1 kinase) (Homo sapiens), sequence (O43318 whole entry, looked up): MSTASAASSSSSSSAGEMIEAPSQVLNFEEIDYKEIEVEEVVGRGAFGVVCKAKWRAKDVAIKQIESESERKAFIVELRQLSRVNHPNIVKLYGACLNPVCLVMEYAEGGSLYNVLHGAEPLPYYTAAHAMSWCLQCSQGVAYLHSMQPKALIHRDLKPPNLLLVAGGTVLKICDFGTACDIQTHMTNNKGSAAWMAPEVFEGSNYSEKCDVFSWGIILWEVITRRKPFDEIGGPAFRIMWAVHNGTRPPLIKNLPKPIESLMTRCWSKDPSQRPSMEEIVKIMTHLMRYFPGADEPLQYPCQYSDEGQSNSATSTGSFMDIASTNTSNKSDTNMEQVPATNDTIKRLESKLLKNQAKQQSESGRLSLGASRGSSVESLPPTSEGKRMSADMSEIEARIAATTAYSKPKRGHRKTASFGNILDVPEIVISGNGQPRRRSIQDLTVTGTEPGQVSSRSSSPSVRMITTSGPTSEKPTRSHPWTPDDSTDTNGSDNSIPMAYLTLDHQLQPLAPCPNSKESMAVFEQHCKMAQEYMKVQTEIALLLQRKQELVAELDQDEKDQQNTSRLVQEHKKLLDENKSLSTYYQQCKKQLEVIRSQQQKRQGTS

IC50: > 10 µM
Compound: CC(C)(N)C(=O)NCCn1ccc2ncnc(Nc3ccc(Oc4cccc5sncc45)c(Cl)c3)c21
